The source of these data is patent publication EP1400530A1, “Suppression of immune response via inhibition of cathepsin S” (MASSACHUSETTS INSTITUTE OF TECHNOLOGY, priority 1996, dated 1997).

This test relates to Peripheral blood mononuclear cells (PBMC's). The format is cell-based, human. To be noted: 3-5 days; 20 µM.

As to `CCOC(=O)[C@H]1O[C@@H]1C(=O)N[C@@H](CC(C)C)C(=O)NCCC(C)C` (relative stereo) [E64D], the “attenuation of 3H-thymidine uptake response to tetanus toxoid” value is on record as “approximately 60%”.
